Results published in PubChem BioAssay (NCI).
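Interpolation was linear, between the two tested concentrations surrounding the appropriate level; five concentrations were tested over 48 hours in 96-well plates. TGI: concentration producing complete growth inhibition.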

Experiments:
Assay in all cases: inhibition of tumour cell growth, NCI panel, 48 h
IGROV1 ovarian = system: IGROV1 ovarian
CCRF-CEM leukemia = system: CCRF-CEM leukemia
NCI/ADR-RES ovarian = system: NCI/ADR-RES ovarian
OVCAR-5 ovarian = system: OVCAR-5 ovarian
SN12C renal = system: SN12C renal
SK-MEL-28 melanoma = system: SK-MEL-28 melanoma
SNB-75 CNS = system: SNB-75 CNS
K-562 leukemia = system: K-562 leukemia
DU-145 prostate = system: DU-145 prostate
HCT-15 colon = system: HCT-15 colon
U251 CNS = system: U251 CNS
NCI-H460 lung = system: NCI-H460 lung
MDA-N = system: MDA-N
SF-268 CNS = system: SF-268 CNS
UACC-257 melanoma = system: UACC-257 melanoma
TK-10 renal = system: TK-10 renal
MDA-MB-435 = system: MDA-MB-435
T-47D breast = system: T-47D breast
OVCAR-4 ovarian = system: OVCAR-4 ovarian
SF-295 CNS = system: SF-295 CNS
OVCAR-3 ovarian = system: OVCAR-3 ovarian
EKVX NSCLC = system: EKVX NSCLC
SK-MEL-2 melanoma = system: SK-MEL-2 melanoma
RXF 393 renal = system: RXF 393 renal
SNB-19 CNS = system: SNB-19 CNS
NCI-H226 lung = system: NCI-H226 lung
KM12 colon = system: KM12 colon
HCC-2998 colon = system: HCC-2998 colon
M14 melanoma = system: M14 melanoma
MALME-3M melanoma = system: MALME-3M melanoma
SF-539 CNS = system: SF-539 CNS
HOP-92 NSCLC = system: HOP-92 NSCLC
RPMI-8226 leukemia = system: RPMI-8226 leukemia
MDA-MB-231 breast = system: MDA-MB-231 breast
MOLT-4 leukemia = system: MOLT-4 leukemia
NCI-H23 lung = system: NCI-H23 lung
HT29 colon = system: HT29 colon
HCT-116 colon = system: HCT-116 colon
UACC-62 melanoma = system: UACC-62 melanoma
ACHN renal = system: ACHN renal
A549 NSCLC = system: A549 NSCLC
OVCAR-8 ovarian = system: OVCAR-8 ovarian
A498 renal = system: A498 renal
NCI-H522 lung = system: NCI-H522 lung
LOX IMVI melanoma = system: LOX IMVI melanoma
UO-31 renal = system: UO-31 renal
BT-549 breast = system: BT-549 breast
SW-620 colon = system: SW-620 colon
786-0 renal = system: 786-0 renal
COLO 205 colon = system: COLO 205 colon
CAKI-1 renal = system: CAKI-1 renal
HL-60(TB) leukemia = system: HL-60(TB) leukemia
MCF7 breast = system: MCF7 breast
SK-OV-3 ovarian = system: SK-OV-3 ovarian
SK-MEL-5 melanoma = system: SK-MEL-5 melanoma
HOP-62 NSCLC = system: HOP-62 NSCLC
PC-3 prostate = system: PC-3 prostate

Measured: TGI

COc1cc2c(cc1OCCCCCN1C(=O)c3cccc4cccc(c34)C1=O)N=C[C@@H]1CCCN1C2=O
0.524 µM: OVCAR-3 ovarian
1.5 µM: HT29 colon
3.13 µM: HCT-116 colon
0.535 µM: IGROV1 ovarian
2.55 µM: SF-539 CNS
0.331 µM: MDA-N
4.66 µM: SF-295 CNS
0.364 µM: MALME-3M melanoma
0.966 µM: SK-MEL-28 melanoma
> 100 µM: K-562 leukemia | U251 CNS | NCI-H460 lung | SF-268 CNS | OVCAR-4 ovarian | HCC-2998 colon | MDA-MB-231 breast | MOLT-4 leukemia
0.391 µM: KM12 colon
15.5 µM: OVCAR-5 ovarian
6.9 µM: DU-145 prostate
0.306 µM: MDA-MB-435
0.747 µM: HOP-92 NSCLC
8.25 µM: T-47D breast
1.85 µM: EKVX NSCLC
0.785 µM: LOX IMVI melanoma
1.47 µM: OVCAR-8 ovarian
0.855 µM: BT-549 breast
1.84 µM: UACC-257 melanoma
4.15 µM: SNB-19 CNS
0.297 µM: UACC-62 melanoma
0.454 µM: UO-31 renal
1.3 µM: A498 renal
4.06 µM: HCT-15 colon
0.574 µM: NCI-H226 lung
0.458 µM: NCI-H23 lung
3.3 µM: A549 NSCLC
9.62 µM: SN12C renal
0.89 µM: NCI/ADR-RES ovarian
0.0677 µM: CCRF-CEM leukemia
2.78 µM: TK-10 renal
0.349 µM: M14 melanoma
0.548 µM: SK-MEL-2 melanoma
1.24 µM: SNB-75 CNS
0.0493 µM: RXF 393 renal
0.827 µM: ACHN renal
> 26.2 µM: RPMI-8226 leukemia
0.167 µM: NCI-H522 lung

Cc1cn(CC2=NCC(O)CN2)c(=O)[nH]c1=O (stereo not drawn)
not listed: SNB-75 CNS | BT-549 breast
> 100 µM: all other assays above

CCCCN(CC)C(=O)C1=C(C)NC(C)=C(C(=O)N(CC)CCCC)C1
not listed: CCRF-CEM leukemia | K-562 leukemia | MALME-3M melanoma | RPMI-8226 leukemia | NCI-H522 lung | PC-3 prostate
> 100 µM: all other assays above
